From patent US10538521B2, “Pyrimidine derivative having antimalarial activity” (CARNA BIOSCIENCES, INC., priority 2016, dated 2020)

What was measured:
[1] = system: K1 strain, a drug resistant strain of Plasmodium falciparum; test: In vitro antimalarial assay (p-LDH, Malstat), K1 strain; type: cell-based; settings: P. falciparum K1 (drug resistant), 72 h culture, p-LDH readout, read-out: Antimalarial activity (IC50 value), Strain K1
In short: (§1)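 P. falciparum FCR3 and K1 cultured in human erythrocytes (RPMI 1640, 10% human plasma; 2% hematocrit, 0.5 or 1% parasitaemia) with compound at 12.5 to 0.0001 μM final for 72 h at 37° C (3% O2-4% CO2-93% N2). Growth read as p-LDH activity (Malstat/NBT-PES, A655 nm) after freeze-thaw; IC50 from concentration-response curve.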

[2] = system: FCR3 strain, a drug sensitive strain of Plasmodium falciparum; test: In vitro antimalarial assay (p-LDH, Malstat), FCR3 strain; type: cell-based; settings: P. falciparum FCR3 (drug sensitive), 72 h culture, p-LDH readout, read-out: Antimalarial activity (IC50 value), Strain FCR3
In short: as §1

Structure (SMILES)	IC50 [1] [nM]	IC50 [2] [nM]
COCCOc1cccc(Nc2nc(Nc3ccn4ccnc4c3)cc(N3CCCC3)n2)n1 [Example 152, N4-(imidazo[1,2-a]pyridin-7-yl)-N2-[6-(2-methoxyethoxy)pyridin-2-yl]-6-(pyrrolidin-1-yl)pyrimidine-2,4-diamine]	< 100	< 100
COc1ccnc(Nc2nc(Nc3ccn4ccnc4c3)cc(N3CCOCC3)n2)c1 [Example 48, N4-(imidazo[1,2-a]pyridin-7-yl)-N2-(4-methoxypyridin-2-yl)-6-morpholinopyrimidine-2,4-diamine]	< 100	< 100
CCCCc1cccc(Nc2nc(Nc3ccn4ccnc4c3)cc(N3CCOCC3)n2)n1 [Example 109, N2-(6-butylpyridin-2-yl)-N4-(imidazo[1,2-a]pyridin-7-yl)-6-morpholinopyrimidine-2,4-diamine]	< 100	< 100
Cc1cc(C)nc(Nc2nc(Nc3ccn4ccnc4c3)cc(N3CCC(N4CCCC4)C3)n2)c1 (stereo not drawn) [Example 148, 6-([1,3′-bipyrrolidin]-1′-yl)-N2-(4,6-dimethylpyridin-2-yl)-N4-(imidazo[1,2-a]pyridin-7-yl)pyrimidine-2,4-diamine]	< 100	< 100
Cc1ccc(Nc2nc(Nc3ccn4ccnc4c3)cc(N3CCCCC3)n2)nc1C [Example 88, N2-(5,6-dimethylpyridin-2-yl)-N4-(imidazo[1,2-a]pyridin-7-yl)-6-(piperidin-1-yl)pyrimidine-2,4-diamine]	< 100	< 100
CN(C)CCc1cccc(Nc2nc(Nc3ccn4ccnc4c3)cc(N3CCCC3)n2)n1 [Example 172, N2-{6-[2-(dimethylamino)ethyl]pyridin-2-yl}-N4-(imidazo[1,2-a]pyridin-7-yl)-6-(pyrrolidin-1-yl)pyrimidine-2,4-diamine]	100 to 1000	< 100
Cc1cc(C)nc(Nc2nc(Nc3ccn4ccnc4c3)cc(N3CC4(COC4)C3)n2)c1 [Example 178, N2-(4,6-dimethylpyridin-2-yl)-N4-(imidazo[1,2-a]pyridin-7-yl)-6-(2-oxa-6-azaspiro[3.3]heptan-6-yl)pyrimidine-2,4-diamine]	< 100	< 100
CC(C)Oc1ccc(Nc2nc(Nc3ccn4ccnc4c3)cc(N3CCOCC3)n2)cn1 [Example 15, N4-(Imidazo[1,2-a]pyridin-7-yl)-N2-(6-isopropoxypyridin-3-yl)-6-morpholinopyrimidine-2,4-diamine]	< 100	< 100
Cc1cc(C2CC2)cc(Nc2nc(Nc3ccn4ccnc4c3)cc(N3CCCCC3)n2)n1 [Example 141, N2-(4-cyclopropyl-6-methylpyridin-2-yl)-N4-(imidazo[1,2-a]pyridin-7-yl)-6-(piperidin-1-yl)pyrimidine-2,4-diamine]	100 to 1000	< 100
CCc1ccnc(Nc2nc(Nc3ccn4ccnc4c3)cc(N3CCC(N4CCCCC4)CC3)n2)c1 [Example 113, 6-([1,4′-bipiperidin]-1′-yl)-N2-(4-ethylpyridin-2-yl)-N4-(imidazo[1,2-a]pyridin-7-yl)pyrimidine-2,4-diamine]	< 100	< 100
Cc1cc(C)nc(Nc2nc(Nc3ccn4ccnc4c3)cc(N3C[C@@H]4OCCO[C@@H]4C3)n2)c1 [Example 194, N2-(4,6-dimethylpyridin-2-yl)-N4-(imidazo[1,2-a]pyridin-7-yl)-6-[(4aR,7aS)-tetrahydro-2H-[1,4]dioxino[2,3-c]pyrrol-6(3H)-yl]pyrimidine-2,4-diamine]	< 100	< 100
COc1ccnc(Nc2nc(Nc3ccn4ccnc4c3)cc(N3CCC4(CCCC4)C3)n2)c1 [Example 207, N4-(imidazo[1,2-a]pyridin-7-yl)-N2-(4-methoxypyridin-2-yl)-6-(2-azaspiro[4.4]nonan-2-yl) pyrimidine-2,4-diamine]	100 to 1000	100 to 1000
